Assay results published in ChEMBL document CHEMBL4507256 (2021).

How the values were obtained:
[1] = biological target: Translocator protein (Rattus norvegicus) (UniProt P16257); assay: BZD-peripheral CEREP ligand profiling; conditions: Compound concentration 10.0 uM
[2] = biological target: Gastrin/cholecystokinin type B receptor (Homo sapiens) (UniProt P32239); assay: CCKB (h) CEREP ligand profiling; conditions: Compound concentration 10.0 uM
[3] = biological target: D(2) dopamine receptor (Homo sapiens) (UniProt P14416); assay: D2S (h) CEREP ligand profiling; conditions: Compound concentration 10.0 uM
[4] = biological target: Endothelin-1 receptor (Homo sapiens) (UniProt P25101); assay: ETA (h) CEREP ligand profiling; conditions: Compound concentration 10.0 uM
[5] = biological target: C-X-C chemokine receptor type 2 (Homo sapiens) (UniProt P25025); assay: CXCR2 (h) CEREP ligand profiling; conditions: Compound concentration 10.0 uM
[6] = biological target: T1, Muscarinic acetylcholine receptor M4 (Homo sapiens) (UniProt P08173); assay: M4 (h) CEREP ligand profiling; conditions: Compound concentration 10.0 uM
T1 sequence (whole entry): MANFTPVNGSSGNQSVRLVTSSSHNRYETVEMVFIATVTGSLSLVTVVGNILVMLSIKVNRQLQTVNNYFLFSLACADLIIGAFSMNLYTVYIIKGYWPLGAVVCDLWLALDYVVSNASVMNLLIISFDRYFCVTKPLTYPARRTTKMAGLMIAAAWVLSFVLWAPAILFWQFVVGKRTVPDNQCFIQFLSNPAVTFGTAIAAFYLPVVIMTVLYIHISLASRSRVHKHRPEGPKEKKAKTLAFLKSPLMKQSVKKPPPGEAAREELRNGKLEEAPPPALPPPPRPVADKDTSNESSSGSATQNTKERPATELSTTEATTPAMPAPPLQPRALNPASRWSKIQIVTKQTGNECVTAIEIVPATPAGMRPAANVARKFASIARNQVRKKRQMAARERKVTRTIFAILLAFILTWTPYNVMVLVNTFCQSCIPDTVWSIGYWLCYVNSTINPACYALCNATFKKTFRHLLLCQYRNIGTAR

[7] = biological target: Neuromedin-K receptor (Homo sapiens) (UniProt P29371); assay: NK3 (h) CEREP ligand profiling; conditions: Compound concentration 10.0 uM
[8] = biological target: Thromboxane A2 receptor (Homo sapiens) (UniProt P21731); assay: TXA2/PGH2 CEREP ligand profiling; conditions: Compound concentration 10.0 uM
[9] = biological target: T2, 5-hydroxytryptamine receptor 2C (Homo sapiens) (UniProt P28335); assay: 5-HT2C (h) CEREP ligand profiling; conditions: Compound concentration 10.0 uM
T2 sequence (whole entry): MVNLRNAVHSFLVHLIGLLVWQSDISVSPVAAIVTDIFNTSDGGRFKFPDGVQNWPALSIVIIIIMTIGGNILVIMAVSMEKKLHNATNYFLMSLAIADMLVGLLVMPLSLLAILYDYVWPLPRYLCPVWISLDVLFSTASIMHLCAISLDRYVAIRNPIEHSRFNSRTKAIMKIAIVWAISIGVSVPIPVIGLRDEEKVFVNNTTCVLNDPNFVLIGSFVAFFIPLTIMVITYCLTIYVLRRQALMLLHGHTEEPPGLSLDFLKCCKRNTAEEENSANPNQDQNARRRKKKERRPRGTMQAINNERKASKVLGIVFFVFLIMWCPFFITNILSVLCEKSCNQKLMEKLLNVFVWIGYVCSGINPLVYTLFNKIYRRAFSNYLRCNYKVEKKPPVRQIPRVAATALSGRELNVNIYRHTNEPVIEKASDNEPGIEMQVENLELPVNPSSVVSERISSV

[10] = biological target: Somatostatin receptor (Homo sapiens) (UniProt P35346+P30874+P31391+P30872+P32745); assay: sst CEREP ligand profiling; type: protein assay; conditions: Compound concentration 10.0 uM
[11] = K+ channel CEREP ligand profiling; conditions: Compound concentration 10.0 uM
[12] = biological target: GABA-A receptor; anion channel (Homo sapiens) (UniProt P14867+P47870+P18507+P28472+P48169+Q99928+Q9UN88+P34903+O00591+O14764+Q8N1C3+P18505+P78334+P47869+P31644+Q16445); assay: BZD (central) CEREP ligand profiling; type: protein-complex assay; conditions: Compound concentration 10.0 uM
[13] = biological target: D(1A) dopamine receptor (Homo sapiens) (UniProt P21728); assay: D1 (h) CEREP ligand profiling; conditions: Compound concentration 10.0 uM
[14] = biological target: T3, Muscarinic acetylcholine receptor M1 (Homo sapiens) (UniProt P11229); assay: M1 (h) CEREP ligand profiling; conditions: Compound concentration 10.0 uM
T3 sequence (whole entry): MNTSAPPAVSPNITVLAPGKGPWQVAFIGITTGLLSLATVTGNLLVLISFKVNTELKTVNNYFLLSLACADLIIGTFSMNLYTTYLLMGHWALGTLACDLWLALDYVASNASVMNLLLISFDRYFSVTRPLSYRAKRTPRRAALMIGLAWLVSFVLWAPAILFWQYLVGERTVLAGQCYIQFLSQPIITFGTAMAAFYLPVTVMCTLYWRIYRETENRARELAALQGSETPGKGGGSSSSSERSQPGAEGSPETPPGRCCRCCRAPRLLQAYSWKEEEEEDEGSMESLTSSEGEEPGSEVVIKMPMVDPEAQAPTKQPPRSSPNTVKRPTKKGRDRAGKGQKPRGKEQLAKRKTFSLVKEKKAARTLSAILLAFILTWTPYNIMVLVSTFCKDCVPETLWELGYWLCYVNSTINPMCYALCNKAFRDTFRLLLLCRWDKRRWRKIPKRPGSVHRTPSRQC

[15] = biological target: Muscarinic acetylcholine receptor M3 (Homo sapiens) (UniProt P20309); assay: M3 (h) CEREP ligand profiling; conditions: Compound concentration 10.0 uM
[16] = biological target: T4, 5-hydroxytryptamine receptor 3A (Homo sapiens) (UniProt P46098); assay: 5-HT3 (h) CEREP ligand profiling; conditions: Compound concentration 10.0 uM
T4 sequence (whole entry): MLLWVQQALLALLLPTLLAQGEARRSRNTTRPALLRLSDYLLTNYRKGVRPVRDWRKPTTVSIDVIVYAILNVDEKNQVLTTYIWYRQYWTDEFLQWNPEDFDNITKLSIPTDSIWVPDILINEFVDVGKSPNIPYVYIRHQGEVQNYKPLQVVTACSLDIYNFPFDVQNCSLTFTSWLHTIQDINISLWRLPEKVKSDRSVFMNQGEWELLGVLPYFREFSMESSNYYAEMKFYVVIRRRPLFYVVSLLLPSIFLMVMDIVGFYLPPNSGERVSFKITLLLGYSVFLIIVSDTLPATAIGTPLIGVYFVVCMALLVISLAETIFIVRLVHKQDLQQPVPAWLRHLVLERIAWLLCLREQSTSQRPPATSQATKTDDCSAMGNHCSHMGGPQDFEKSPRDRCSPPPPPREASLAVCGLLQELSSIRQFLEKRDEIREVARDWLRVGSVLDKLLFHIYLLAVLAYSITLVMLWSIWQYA

[17] = biological target: Sigma non-opioid intracellular receptor 1 (Homo sapiens, UniProt Q99720); assay: sigma CEREP ligand profiling; conditions: Compound concentration 10.0 uM
[18] = biological target: Calcium-activated potassium channel (Homo sapiens) (UniProt Q92952+Q9UGI6+Q12791+O15554+Q9H2S1+A8MYU2); assay: SK+ channel CEREP ligand profiling; type: protein assay; conditions: Compound concentration 10.0 uM
[19] = biological target: Dual specificity mitogen-activated protein kinase kinase 5 (Homo sapiens) (UniProt Q13163); conditions: Compound concentration 1000.0 nM
[20] = biological target: Beta-1 adrenergic receptor (Homo sapiens) (UniProt P08588); conditions: Compound concentration 10.0 uM
Sequence of Beta-1 adrenergic receptor (Homo sapiens) (P08588 whole entry, looked up): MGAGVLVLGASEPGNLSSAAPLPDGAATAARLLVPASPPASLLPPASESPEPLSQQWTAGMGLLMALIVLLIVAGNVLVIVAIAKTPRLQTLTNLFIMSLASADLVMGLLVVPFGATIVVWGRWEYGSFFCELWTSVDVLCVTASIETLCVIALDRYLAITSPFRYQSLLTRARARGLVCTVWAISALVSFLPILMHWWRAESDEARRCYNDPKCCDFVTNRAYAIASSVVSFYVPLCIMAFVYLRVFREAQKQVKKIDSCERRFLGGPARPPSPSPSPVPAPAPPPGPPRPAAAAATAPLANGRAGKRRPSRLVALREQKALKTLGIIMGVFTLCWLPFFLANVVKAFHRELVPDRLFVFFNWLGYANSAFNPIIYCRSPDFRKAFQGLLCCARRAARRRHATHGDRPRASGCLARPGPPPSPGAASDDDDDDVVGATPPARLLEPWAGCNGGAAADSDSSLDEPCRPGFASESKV

Sequence of Muscarinic acetylcholine receptor M3 (Homo sapiens) (P20309 whole entry, looked up): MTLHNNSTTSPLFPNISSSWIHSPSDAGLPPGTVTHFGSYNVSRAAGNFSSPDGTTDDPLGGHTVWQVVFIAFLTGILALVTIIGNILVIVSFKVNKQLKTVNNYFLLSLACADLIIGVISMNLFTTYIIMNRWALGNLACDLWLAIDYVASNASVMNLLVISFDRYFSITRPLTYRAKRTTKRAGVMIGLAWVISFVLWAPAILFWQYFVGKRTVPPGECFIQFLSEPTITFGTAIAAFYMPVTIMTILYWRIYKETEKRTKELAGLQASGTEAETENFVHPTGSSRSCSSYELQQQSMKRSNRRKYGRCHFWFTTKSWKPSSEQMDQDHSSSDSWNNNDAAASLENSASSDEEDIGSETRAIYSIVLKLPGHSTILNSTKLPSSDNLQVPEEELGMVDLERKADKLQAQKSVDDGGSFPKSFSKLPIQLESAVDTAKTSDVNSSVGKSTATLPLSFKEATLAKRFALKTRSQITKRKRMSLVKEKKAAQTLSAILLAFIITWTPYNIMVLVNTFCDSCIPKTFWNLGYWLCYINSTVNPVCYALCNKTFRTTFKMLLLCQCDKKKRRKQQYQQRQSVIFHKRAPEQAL
Sequence of Dual specificity mitogen-activated protein kinase kinase 5 (Homo sapiens) (Q13163 whole entry): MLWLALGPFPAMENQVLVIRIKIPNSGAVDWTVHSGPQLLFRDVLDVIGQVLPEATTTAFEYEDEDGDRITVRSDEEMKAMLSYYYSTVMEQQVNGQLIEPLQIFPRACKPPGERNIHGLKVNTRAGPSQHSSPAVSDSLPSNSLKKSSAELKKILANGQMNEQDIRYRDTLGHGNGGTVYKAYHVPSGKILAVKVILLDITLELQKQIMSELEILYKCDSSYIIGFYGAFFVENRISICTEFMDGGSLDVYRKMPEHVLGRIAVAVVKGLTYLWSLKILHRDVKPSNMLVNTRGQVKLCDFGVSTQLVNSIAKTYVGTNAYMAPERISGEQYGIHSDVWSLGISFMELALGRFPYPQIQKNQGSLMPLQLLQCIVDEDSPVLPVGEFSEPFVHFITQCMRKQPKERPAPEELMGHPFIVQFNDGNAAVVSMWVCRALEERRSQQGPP
Sequence of Sigma non-opioid intracellular receptor 1 (Q99720 whole entry): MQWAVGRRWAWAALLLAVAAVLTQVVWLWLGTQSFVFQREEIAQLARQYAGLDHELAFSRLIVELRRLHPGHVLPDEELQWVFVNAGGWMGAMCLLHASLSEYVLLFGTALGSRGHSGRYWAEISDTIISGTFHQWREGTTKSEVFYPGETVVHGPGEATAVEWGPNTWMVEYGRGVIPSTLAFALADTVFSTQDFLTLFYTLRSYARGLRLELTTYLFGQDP
Sequence of Thromboxane A2 receptor (Homo sapiens) (P21731 whole entry): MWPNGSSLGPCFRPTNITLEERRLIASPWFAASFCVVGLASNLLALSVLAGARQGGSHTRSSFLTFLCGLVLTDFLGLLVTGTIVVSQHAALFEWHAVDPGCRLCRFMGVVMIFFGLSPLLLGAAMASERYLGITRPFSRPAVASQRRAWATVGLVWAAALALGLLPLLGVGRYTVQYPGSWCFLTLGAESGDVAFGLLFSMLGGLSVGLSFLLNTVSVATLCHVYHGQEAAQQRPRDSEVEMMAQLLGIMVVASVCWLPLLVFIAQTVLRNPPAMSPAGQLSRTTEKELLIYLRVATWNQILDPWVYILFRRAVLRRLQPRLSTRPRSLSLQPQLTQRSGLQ
Sequence of Gastrin/cholecystokinin type B receptor (Homo sapiens) (P32239 whole entry): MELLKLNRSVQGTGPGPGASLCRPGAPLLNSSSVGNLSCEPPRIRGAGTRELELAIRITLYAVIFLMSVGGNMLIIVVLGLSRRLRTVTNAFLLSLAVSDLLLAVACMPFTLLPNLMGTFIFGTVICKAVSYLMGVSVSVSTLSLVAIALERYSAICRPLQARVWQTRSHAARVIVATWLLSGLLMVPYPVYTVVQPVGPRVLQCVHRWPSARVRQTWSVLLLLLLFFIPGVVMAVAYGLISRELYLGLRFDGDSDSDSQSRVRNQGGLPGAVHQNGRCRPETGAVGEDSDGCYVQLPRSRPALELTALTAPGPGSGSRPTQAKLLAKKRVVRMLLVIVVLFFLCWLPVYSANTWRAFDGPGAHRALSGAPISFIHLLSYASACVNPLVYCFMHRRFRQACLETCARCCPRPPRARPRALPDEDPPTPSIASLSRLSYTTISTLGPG
Sequence of Endothelin-1 receptor (Homo sapiens) (P25101 whole entry): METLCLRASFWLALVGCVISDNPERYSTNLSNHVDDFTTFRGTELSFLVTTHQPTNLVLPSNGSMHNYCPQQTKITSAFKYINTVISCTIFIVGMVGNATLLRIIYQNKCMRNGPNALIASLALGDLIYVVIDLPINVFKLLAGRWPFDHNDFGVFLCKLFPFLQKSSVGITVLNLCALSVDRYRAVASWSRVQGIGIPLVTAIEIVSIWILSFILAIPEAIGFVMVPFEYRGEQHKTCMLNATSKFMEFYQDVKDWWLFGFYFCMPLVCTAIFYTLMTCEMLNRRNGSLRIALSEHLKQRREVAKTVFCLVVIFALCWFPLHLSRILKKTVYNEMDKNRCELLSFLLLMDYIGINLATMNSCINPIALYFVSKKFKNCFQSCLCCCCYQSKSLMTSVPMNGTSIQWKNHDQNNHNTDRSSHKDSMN
Sequence of Translocator protein (Rattus norvegicus) (P16257 whole entry, looked up): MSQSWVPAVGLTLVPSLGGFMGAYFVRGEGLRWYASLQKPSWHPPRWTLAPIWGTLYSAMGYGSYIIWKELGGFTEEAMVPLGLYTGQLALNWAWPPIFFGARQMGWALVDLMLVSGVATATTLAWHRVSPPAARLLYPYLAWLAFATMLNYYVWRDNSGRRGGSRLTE
Sequence of C-X-C chemokine receptor type 2 (Homo sapiens) (P25025 whole entry): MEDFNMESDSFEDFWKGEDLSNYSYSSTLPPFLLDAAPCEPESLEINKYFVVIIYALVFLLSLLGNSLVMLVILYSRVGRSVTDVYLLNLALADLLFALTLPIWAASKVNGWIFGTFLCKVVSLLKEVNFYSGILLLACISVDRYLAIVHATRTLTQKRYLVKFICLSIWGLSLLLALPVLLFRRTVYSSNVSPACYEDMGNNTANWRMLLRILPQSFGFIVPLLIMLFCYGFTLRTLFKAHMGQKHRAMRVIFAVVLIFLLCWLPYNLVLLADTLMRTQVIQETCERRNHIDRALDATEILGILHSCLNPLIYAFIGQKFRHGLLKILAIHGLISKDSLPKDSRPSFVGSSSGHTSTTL
Sequence of Neuromedin-K receptor (Homo sapiens) (P29371 whole entry): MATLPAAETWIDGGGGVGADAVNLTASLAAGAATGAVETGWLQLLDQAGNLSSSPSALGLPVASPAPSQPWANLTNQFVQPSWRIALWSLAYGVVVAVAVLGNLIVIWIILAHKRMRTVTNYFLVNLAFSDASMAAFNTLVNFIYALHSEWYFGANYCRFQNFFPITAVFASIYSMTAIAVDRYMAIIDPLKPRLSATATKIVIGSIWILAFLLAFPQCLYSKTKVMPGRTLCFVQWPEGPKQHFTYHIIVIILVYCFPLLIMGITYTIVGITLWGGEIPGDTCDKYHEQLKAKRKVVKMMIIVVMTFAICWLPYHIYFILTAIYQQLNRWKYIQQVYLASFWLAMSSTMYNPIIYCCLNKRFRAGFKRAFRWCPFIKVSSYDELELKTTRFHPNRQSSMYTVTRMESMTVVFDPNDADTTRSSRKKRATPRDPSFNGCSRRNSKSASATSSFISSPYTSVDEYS
Sequence of D(2) dopamine receptor (Homo sapiens) (P14416 whole entry): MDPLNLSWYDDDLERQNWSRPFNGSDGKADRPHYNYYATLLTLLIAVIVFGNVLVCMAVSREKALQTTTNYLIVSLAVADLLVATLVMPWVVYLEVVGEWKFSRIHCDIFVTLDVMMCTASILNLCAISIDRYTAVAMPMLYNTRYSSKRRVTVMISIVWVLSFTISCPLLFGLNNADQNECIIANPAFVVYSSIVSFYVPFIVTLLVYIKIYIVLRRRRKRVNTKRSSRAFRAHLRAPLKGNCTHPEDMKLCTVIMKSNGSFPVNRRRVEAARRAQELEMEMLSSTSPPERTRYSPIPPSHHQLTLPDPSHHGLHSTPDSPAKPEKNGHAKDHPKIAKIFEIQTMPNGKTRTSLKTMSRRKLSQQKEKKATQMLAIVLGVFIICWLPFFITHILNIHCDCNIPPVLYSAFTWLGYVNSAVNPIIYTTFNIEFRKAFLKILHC
Sequence of D(1A) dopamine receptor (Homo sapiens) (P21728 whole entry): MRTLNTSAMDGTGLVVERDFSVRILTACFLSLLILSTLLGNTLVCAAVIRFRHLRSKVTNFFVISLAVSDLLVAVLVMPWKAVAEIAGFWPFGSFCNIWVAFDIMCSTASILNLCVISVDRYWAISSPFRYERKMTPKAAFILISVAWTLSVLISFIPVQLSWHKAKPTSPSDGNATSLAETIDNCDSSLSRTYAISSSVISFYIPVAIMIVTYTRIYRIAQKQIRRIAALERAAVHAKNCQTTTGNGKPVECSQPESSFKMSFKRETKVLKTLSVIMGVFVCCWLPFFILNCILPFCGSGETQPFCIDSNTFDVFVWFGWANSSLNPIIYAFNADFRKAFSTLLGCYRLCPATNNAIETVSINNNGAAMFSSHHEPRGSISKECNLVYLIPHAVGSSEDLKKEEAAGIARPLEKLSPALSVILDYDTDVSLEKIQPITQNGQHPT

CCC(=N\O)/C(C)=C/c1ccc(F)cc1 [A-079]
inactive: inhibition [1] 6% | inhibition [2] 7% | inhibition [3] 4% | inhibition [4] 5% | inhibition [5] -1% | inhibition [6] 5% | inhibition [7] 23% | inhibition [8] 6% | inhibition [9] 6% | inhibition [10] -4% | inhibition [11] -8% | inhibition [12] 1% | inhibition [13] 6% | inhibition [14] 8% | inhibition [15] 6% | inhibition [16] 0% | inhibition [17] -2% | inhibition [18] -5%

CCC(=N\O)/C(C)=C/c1ccc(F)c(C)c1 [A-226]
inactive: residual activity [19] 86% | inhibition [20] 10.2%
